Experimental data from patent US20030215959A1, “Method of screening binding of a compound to a receptor” (priority 2002, published 2003).

What was measured:
[1] = test system: non-NMDA glutamate receptors in mouse cortical cells; assay: CNQX displacement assay with homogenized mouse cortical cells, visible difference absorption spectra; type: binding; details: homogenized mouse cortical cells with CNQX in PBS pH 7.4; test compound 100 μM; 310 nm to 450 nm; FIG. 2 traces A-B
Procedure: Cortical neuronal cultures: Mixed cortical cell cultures containing both neurons and astrocytes were prepared from fetal mice (15-16 day gestation) as described by Asrari and Lobner (14). Briefly, dissociated cortical cells were plated on a preexisting astrocyte monolayer in a 24-well plate (a plating density of ˜2.5×10^5 cells per well). The plating medium was Eagle's minimal essential medium (MEM) (Earle's salts, supplied glutamine-free) supplemented with 5% fetal bovine serum, 5% horse serum, 2 mM glutamine and 20 mM glucose. Non-neuronal cell division was halted at 3-5 days in vitro by 3-day exposure to […] cytosine arabinoside. Cultures were maintained in humidified 5% CO2 incubators at 37° C. and were used for experiments at 14-16 days in vitro.
Absorption measurements: The UV-visible absorption spectra were obtained using Agilent 8453 or Shimadzu UV 2501 spectrometers. The spectra were recorded in the 310 nm to 450 nm range, at a spectral resolution of 2 nm, using a 1 cm quartz cuvette as the sample holder. […]
Dissociated mouse cortical cells were obtained as outlined in the Materials and Methods section. […] CNQX was added to the cells such that the final absorption of the sample in the 310 nm to 450 nm range was less than 1 absorbance unit. […]

[2] = target: T1, GluR2-S1S2 (ligand-binding domain of the GluR2 subunit of the glutamate receptor) (Rattus norvegicus, UniProt P19491); assay: Quinoxaline (CNQX) displacement assay with GluR2-S1S2, visible difference absorption spectra; details: GluR2-S1S2 bound to 25 μM CNQX; test ligand 50 μM; phosphate buffer pH 7.4; 310 nm to 450 nm; FIG. 1 traces B-E
T1 construct: made in house
T1 sequence (P19491 411-527): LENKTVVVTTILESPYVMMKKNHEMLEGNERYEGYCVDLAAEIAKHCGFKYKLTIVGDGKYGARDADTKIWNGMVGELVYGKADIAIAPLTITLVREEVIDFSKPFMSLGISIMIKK
T1 sequence (P19491 653-796): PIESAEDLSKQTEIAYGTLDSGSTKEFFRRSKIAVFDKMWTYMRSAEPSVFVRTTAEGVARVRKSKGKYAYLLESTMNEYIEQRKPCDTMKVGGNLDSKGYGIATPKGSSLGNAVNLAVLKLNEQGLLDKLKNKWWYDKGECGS
From the text: To begin, a baseline or control spectrum of the free quinoxaline derivative in buffer solution is generated. A second spectrum is then taken of the quinoxaline admixed with the receptor under investigation. A difference spectrum is then generated between the first spectrum (free quinoxaline) and second spectrum (protein-bound quinoxaline). The characteristic features of this difference spectrum arise due to changes in the electronic spectrum of the quinoxaline derivative bound to the protein as compared to the electronic spectrum of the free quinoxaline. Thus, the difference spectrum can be used as the control to test for compounds that compete for the same binding site as quinoxaline derivative.
With the difference spectrum in hand as a control, a known amount of a test agent is added to a test well containing the receptor protein and the quinoxaline derivative. […] A visible spectrum is than taken of the test well. This test spectrum is then compared to the control spectrum to see if they share the same characteristic changes in the electronic character of the quinoxaline. […]

Row | displacement of bound CNQX from the receptor protein (difference spectrum) [2] | SMILES | displacement of CNQX from the non-NMDA glutamate receptors in cortical cells (difference spectrum) [1]
1 | – | N[C@@H](CCC(=O)O)C(=O)O [glutamate] | is displaced by the addition of glutamate
2 | does not displace CNQX from the protein | NCCCC(=O)O [γ-amino butyric acid] | CNQX is not displaced
